Results from ChEMBL document CHEMBL3046133, “Susceptibility of field populations of Spodoptera litura (Fabricius) (Lepidoptera: Noctuidae) in China to chlorantraniliprole and the activities of detoxification enzymes” (2012).

How the values were obtained:
Assay type in all cases: functional
Spodoptera litura [1] = experiment: Resistance factor, ratio of LC50 for second to fifth-instar larval stage of Spodoptera litura field strain DG10 to LC50 for larval stage of Spodoptera litura laboratory strain XW-Sus
Spodoptera litura [2] = experiment: Resistance factor, ratio of LC50 for second to fifth-instar larval stage of Spodoptera litura field strain HZ10 to LC50 for larval stage of Spodoptera litura laboratory strain XW-Sus
Spodoptera litura [3] = experiment: Resistance factor, ratio of LC50 for second to fifth-instar larval stage of Spodoptera litura field strain SZ10 to LC50 for larval stage of Spodoptera litura laboratory strain XW-Sus
Spodoptera litura [4] = experiment: Resistance factor, ratio of LC50 for second to fifth-instar larval stage of Spodoptera litura field strain ZZ10 to LC50 for larval stage of Spodoptera litura laboratory strain XW-Sus
Spodoptera litura [5] = experiment: Resistance factor, ratio of LC50 for third to fifth-instar larval stage of Spodoptera litura field strain HX09 to LC50 for larval stage of Spodoptera litura laboratory strain XW-Sus
Spodoptera litura [6] = experiment: Resistance factor, ratio of LC50 for third to fifth-instar larval stage of Spodoptera litura field strain HF10 to LC50 for larval stage of Spodoptera litura laboratory strain XW-Sus
Spodoptera litura [7] = experiment: Resistance factor, ratio of LC50 for third to fifth-instar larval stage of Spodoptera litura field strain HF08 to LC50 for larval stage of Spodoptera litura laboratory strain XW-Sus
Spodoptera litura [8] = experiment: Resistance factor, ratio of LC50 for third to fifth-instar larval stage of Spodoptera litura field strain SH10 to LC50 for larval stage of Spodoptera litura laboratory strain XW-Sus
Spodoptera litura [9] = experiment: Resistance factor, ratio of LC50 for third to fifth-instar larval stage of Spodoptera litura field strain NJ10 to LC50 for larval stage of Spodoptera litura laboratory strain XW-Sus
Spodoptera litura [10] = experiment: Resistance factor, ratio of LC50 for third to fifth-instar larval stage of Spodoptera litura field strain NJ09 to LC50 for larval stage of Spodoptera litura laboratory strain XW-Sus
Spodoptera litura [11] = experiment: Resistance factor, ratio of LC50 for third to fifth-instar larval stage of Spodoptera litura field strain NN10 to LC50 for larval stage of Spodoptera litura laboratory strain XW-Sus
Spodoptera litura [12] = experiment: Resistance factor, ratio of LC50 for third to fifth-instar larval stage of Spodoptera litura field strain HH09 to LC50 for larval stage of Spodoptera litura laboratory strain XW-Sus
Spodoptera litura [13] = experiment: Insecticidal activity against second to fifth-instar larval stage of Spodoptera litura field strain DG10 assessed as mortality after 72 hr by diet incorporation bioassay
Spodoptera litura [14] = experiment: Insecticidal activity against second to fifth-instar larval stage of Spodoptera litura field strain HZ10 assessed as mortality after 72 hr by diet incorporation bioassay
Spodoptera litura [15] = experiment: Insecticidal activity against second to fifth-instar larval stage of Spodoptera litura field strain SZ10 assessed as mortality after 72 hr by diet incorporation bioassay
Spodoptera litura [16] = experiment: Insecticidal activity against second to fifth-instar larval stage of Spodoptera litura field strain ZZ10 assessed as mortality after 72 hr by diet incorporation bioassay
Spodoptera litura [17] = experiment: Insecticidal activity against third to fifth-instar larval stage of Spodoptera litura field strain HX09 assessed as mortality after 72 hr by diet incorporation bioassay
Spodoptera litura [18] = experiment: Insecticidal activity against third to fifth-instar larval stage of Spodoptera litura field strain HF10 assessed as mortality after 72 hr by diet incorporation bioassay
Spodoptera litura [19] = experiment: Insecticidal activity against third to fifth-instar larval stage of Spodoptera litura field strain HF08 assessed as mortality after 72 hr by diet incorporation bioassay
Spodoptera litura [20] = experiment: Insecticidal activity against third to fifth-instar larval stage of Spodoptera litura field strain SH10 assessed as mortality after 72 hr by diet incorporation bioassay
Spodoptera litura [21] = experiment: Insecticidal activity against third to fifth-instar larval stage of Spodoptera litura field strain NJ10 assessed as mortality after 72 hr by diet incorporation bioassay
Spodoptera litura [22] = experiment: Insecticidal activity against third to fifth-instar larval stage of Spodoptera litura field strain NJ09 assessed as mortality after 72 hr by diet incorporation bioassay
Spodoptera litura [23] = experiment: Insecticidal activity against third to fifth-instar larval stage of Spodoptera litura field strain NN10 assessed as mortality after 72 hr by diet incorporation bioassay
Spodoptera litura [24] = experiment: Insecticidal activity against third to fifth-instar larval stage of Spodoptera litura field strain HH09 assessed as mortality after 72 hr by diet incorporation bioassay
Spodoptera litura [25] = experiment: Insecticidal activity against larval stage of Spodoptera litura laboratory strain XW-Sus assessed as mortality after 72 hr by diet incorporation bioassay

CNC(=O)c1cc(Cl)cc(C)c1NC(=O)c1cc(Br)nn1-c1ncccc1Cl [CHLORANTRANILIPROLE]
RatioLC50 (Spodoptera litura [1]): 23.3
RatioLC50 (Spodoptera litura [2]): 19.2
RatioLC50 (Spodoptera litura [3]): 24.4
RatioLC50 (Spodoptera litura [4]): 18.9
RatioLC50 (Spodoptera litura [5]): 23.8
RatioLC50 (Spodoptera litura [6]): 17.9
RatioLC50 (Spodoptera litura [7]): 16.9
RatioLC50 (Spodoptera litura [8]): 11.2
RatioLC50 (Spodoptera litura [9]): 9
RatioLC50 (Spodoptera litura [10]): 6.8
RatioLC50 (Spodoptera litura [11]): 7.8
RatioLC50 (Spodoptera litura [12]): 9.4
LC50 (Spodoptera litura [13]): 98.81 ugAi/L
LC90 (Spodoptera litura [13]): 358.16 ugAi/L
LC50 (Spodoptera litura [14]): 80.41 ugAi/L
LC90 (Spodoptera litura [14]): 296.76 ugAi/L
LC50 (Spodoptera litura [15]): 102.48 ugAi/L
LC90 (Spodoptera litura [15]): 354.52 ugAi/L
LC50 (Spodoptera litura [16]): 78.89 ugAi/L
LC90 (Spodoptera litura [16]): 269.74 ugAi/L
LC50 (Spodoptera litura [17]): 100.3 ugAi/L
LC90 (Spodoptera litura [17]): 431.76 ugAi/L
LC50 (Spodoptera litura [18]): 75.51 ugAi/L
LC90 (Spodoptera litura [18]): 262.61 ugAi/L
LC50 (Spodoptera litura [19]): 71.58 ugAi/L
LC90 (Spodoptera litura [19]): 386.57 ugAi/L
LC50 (Spodoptera litura [20]): 47.17 ugAi/L
LC90 (Spodoptera litura [20]): 133.09 ugAi/L
LC50 (Spodoptera litura [21]): 37.78 ugAi/L
LC90 (Spodoptera litura [21]): 156.29 ugAi/L
LC50 (Spodoptera litura [22]): 28.41 ugAi/L
LC90 (Spodoptera litura [22]): 108.24 ugAi/L
LC50 (Spodoptera litura [23]): 32.85 ugAi/L
LC90 (Spodoptera litura [23]): 81.75 ugAi/L
LC50 (Spodoptera litura [24]): 39.54 ugAi/L
LC90 (Spodoptera litura [24]): 132.55 ugAi/L
LC50 (Spodoptera litura [25]): 4.2 ugAi/L
LC90 (Spodoptera litura [25]): 17.82 ugAi/L
